Experimental data taken from patent publication US20220313698A1, “MODULATORS OF CYSTIC FIBROSIS TRANSMEMBRANE CONDUCTANCE REGULATOR” (Vertex Pharmaceuticals Incorporated, priority 2019, published 2022).

Target: CFTR-mediated chloride transport (Homo sapiens, UniProt P13569)
Assay: Corrector Assay A - membrane potential dye assay (enteroid cells)
Settings: for Corrector Assay A % activity: % of chloride transport of triple combination control (1 μM (14S)-dispiro macrocycle + 3 μM tezacaftor + 300 nM ivacaftor); for EC50: read-out: Corrector Assay A EC50, human intestinal enteroid cells, 18-24 h incubation, acute 10 μM forskolin + 300 nM ivacaftor

| Compound | Corrector Assay A % activity | EC50 [nM] |
| --- | --- | --- |
| CC(C)(C)c1ccc2c(n1)N1CC(CCCOc3cccc(c3)S(=O)(=O)NC2=O)CC1(C)C (single isomer, unassigned) [Compound 257, 8-tert-Butyl-12,12-dimethyl-18-oxa-2λ^6-thia-3,9,11-triazatetracyclo[17.3.1.111,14.05,10]tetracosa-1(22),5,7,9,19(23),20-hexaene-2,2,4-trione] | + (+ is <30%) | – |
| COc1cccc(-c2ccc3c(n2)N2C[C@@H](CC[C@H](c4ccccn4)Nc4cccc(n4)S(=O)(=O)NC3=O)CC2(C)C)n1 [Compound 337] | +++ (+++ is >60%) | < 1000 |
| COCCc1ccc(C2CC[C@@H]3CN(c4nc(C(C)(C)C)ccc4C(=O)NS(=O)(=O)c4cccc(n4)N2)C(C)(C)C3)nc1 (stereo partly shown) [Compound 112] | ++ (++ is 30-60%) | < 1000 |
| CC1(C)C[C@@H]2CC[C@@H](c3ccccn3)Nc3cccc(n3)S(=O)(=O)NC(=O)c3ccc(-c4c(F)cccc4Cl)nc3N1C2 [Compound 344] | ++ (++ is 30-60%) | < 1000 |
| CC(C)(C)c1ccc2c(n1)N1C[C@@H](CCC(C(=O)O)Nc3cccc(n3)S(=O)(=O)NC2=O)CC1(C)C (single isomer, unassigned) [Compound 231] | + (+ is <30%) | > 3000 |
| CC(C)(C)c1ccc2c(n1)N1C[C@@H](CCC(C)(c3ccccn3)Nc3cccc(n3)S(=O)(=O)NC2=O)CC1(C)C (single isomer, unassigned) [Compound 44] | ++ (++ is 30-60%) | < 1000 |
| CC(C)(C)c1ccc2c(n1)N1C[C@@H](CCC(CC(O)CO)Nc3cccc(n3)S(=O)(=O)NC2=O)CC1(C)C (single isomer, unassigned) [Compound 31] | ++ (++ is 30-60%) | < 1000 |
| CC(C)(C)CCOc1ccn(-c2ccc3c(n2)N2C[C@@H](CC[C@H](c4cccc(C(F)(F)F)n4)Nc4cccc(n4)S(=O)(=O)NC3=O)CC2(C)C)n1 [Compound 306, (14S,17R)-8-[3-(3,3-dimethylbutoxy)-1H-pyrazol-1-yl]-12,12-dimethyl-17-[6-(trifluoromethyl)pyridin-2-yl]-2λ^6-thia-3,9,11,18,23-pentaazatetracyclo[17.3.1.111,14.05,10]tetracosa-1(22),5,7,9,19(23),20-hexaene-2,2,4-trione] | ++ (++ is 30-60%) | < 1000 |
| CC(C)(C)c1ccc2c(n1)N1C[C@@H](CCC(c3cc(CCCN)ccn3)Nc3cccc(n3)S(=O)(=O)NC2=O)CC1(C)C (single isomer, unassigned) [Compound 110] | + (+ is <30%) | > 3000 |
| CC(C)CN1c2cccc(n2)S(=O)(=O)NC(=O)c2ccc(C(C)(C)C)nc2N2C[C@@H](CCC1c1ccccc1)CC2(C)C (single isomer, unassigned) [Compound 270] | + (+ is <30%) | – |
| CC1(C)C[C@@H]2CC[C@H](c3ccccn3)Nc3cccc(n3)S(=O)(=O)NC(=O)c3ccc(-c4cccc(OCC5CC5)n4)nc3N1C2 [Compound 314] | +++ (+++ is >60%) | < 1000 |
| CN1CCN(c2ccc(C3CC[C@@H]4CN(c5nc(C(C)(C)C)ccc5C(=O)NS(=O)(=O)c5cccc(n5)N3)C(C)(C)C4)nc2)CC1 (stereo partly drawn) [Compound 201, (14S)-8-tert-butyl-12,12-dimethyl-17-[5-(4-methylpiperazin-1-yl)pyridin-2-yl]-2λ^6-thia-3,9,11,18,23-pentaazatetracyclo[17.3.1.111,14.05,10]tetracosa-1(23),5(10),6,8,19,21-hexaene-2,2,4-trione] | +++ (+++ is >60%) | < 1000 |
| CC(C)(C)OC(=O)NCc1ccnc(C2CC[C@@H]3CN(c4nc(C(C)(C)C)ccc4C(=O)NS(=O)(=O)c4cccc(n4)N2)C(C)(C)C3)c1 (single isomer, unassigned) [Compound 120] | +++ (+++ is >60%) | < 1000 |
| CC(C)(C)c1ccc2c(n1)N1C[C@@H](CCC(c3ccc(C4CC(F)(F)C4)cn3)Nc3cccc(n3)S(=O)(=O)NC2=O)CC1(C)C (stereo partly shown) [Compound 21] | +++ (+++ is >60%) | < 1000 |
| Cc1cccc(C)c1[C@H]1CC[C@@H]2CN(c3nc(C(C)(C)C)ccc3C(=O)NS(=O)(=O)c3cccc(n3)N1)C(C)(C)C2 (single isomer, unassigned) [Compound 242] | + (+ is <30%) | – |
| CC(C)(C)c1cccc(C2CC[C@@H]3CN(c4nc(C(C)(C)C)ccc4C(=O)NS(=O)(=O)c4cccc(n4)N2)C(C)(C)C3)c1 (single isomer, unassigned) [Compound 40] | ++ (++ is 30-60%) | < 1000 |
| CC(C)(C)CCOc1ccn(-c2ccc3c(n2)N2C[C@@H](CC[C@H](c4ccccn4)Nc4cccc(n4)S(=O)(=O)NC3=O)CC2(C)C)n1 [Compound 320, (14S,17R)-8-[3-(3,3-dimethylbutoxy)-1H-pyrazol-1-yl]-12,12-dimethyl-17-(pyridin-2-yl)-2λ^6-thia-3,9,11,18,23-pentaazatetracyclo[17.3.1.111,14.05,10]tetracosa-1(22),5,7,9,19(23),20-hexaene-2,2,4-trione] | +++ (+++ is >60%) | < 1000 |
| CC(C)(C)c1ccc2c(n1)N1C[C@@H](CC[C@@H](C3CCCCC3)Nc3cccc(n3)S(=O)(=O)NC2=O)CC1(C)C (single isomer, unassigned) [Compound 235] | ++ (++ is 30-60%) | < 1000 |
| CC(C)(C)c1ccc2c(n1)N1C[C@@H](CCC(c3ccncc3)Nc3cccc(n3)S(=O)(=O)NC2=O)CC1(C)C (single isomer, unassigned) [Compound 233] | ++ (++ is 30-60%) | < 1000 |
| CC(C)O[C@H]1C[C@@H](Oc2ccc3c(n2)N2C[C@@H](CC[C@@H](c4ccccn4)Nc4cccc(n4)S(=O)(=O)NC3=O)CC2(C)C)C1 [Compound 162] | ++ (++ is 30-60%) | < 1000 |

Second part, the compound after the results:

| Corrector Assay A % activity | EC50 [nM] | Compound |
| --- | --- | --- |
| +++ (+++ is >60%) | < 1000 | CC(C)(C)c1ccc2c(n1)N1C[C@@H](CCC(c3cc(Br)ccn3)Nc3cccc(n3)S(=O)(=O)NC2=O)CC1(C)C (single isomer, unassigned) [Compound 46] |
| +++ (+++ is >60%) | < 1000 | CC(C)(C)c1ccc2c(n1)N1C[C@@H](CCC(c3ccc(CO)cn3)Nc3cccc(n3)S(=O)(=O)NC2=O)CC1(C)C (stereo partly drawn) [Compound 79, (14S)-8-tert-butyl-17-[5-(hydroxymethyl)pyridin-2-yl]-12,12-dimethyl-2λ^6-thia-3,9,11,18,23-pentaazatetracyclo[17.3.1.111,14.05,10]tetracosa-1(23),5(10),6,8,19,21-hexaene-2,2,4-trione] |
| ++ (++ is 30-60%) | < 1000 | CC(C)(C)c1ccc2c(n1)N1C[C@@H](CCC(c3ccc(Cl)cn3)Nc3cccc(n3)S(=O)(=O)NC2=O)CC1(C)C (single isomer, unassigned) [Compound 209] |
| +++ (+++ is >60%) | < 1000 | CC(C)(C)c1ccc2c(n1)N1C[C@@H](CCC(c3ccc(N4CCCC4)cn3)Nc3cccc(n3)S(=O)(=O)NC2=O)CC1(C)C (stereo partly drawn) [Compound 164, (14S)-8-tert-butyl-12,12-dimethyl-17-[5-(pyrrolidin-1-yl)pyridin-2-yl]-2λ^6-thia-3,9,11,18,23-pentaazatetracyclo[17.3.1.111,14.05,10]tetracosa-1(23),5(10),6,8,19,21-hexaene-2,2,4-trione] |
| ++ (++ is 30-60%) | < 1000 | CC(C)(C)c1ccc2c(n1)N1C[C@@H](CC[C@@H](c3cccc(C4CNC4)n3)Nc3cccc(n3)S(=O)(=O)NC2=O)CC1(C)C [Compound 151] |
| +++ (+++ is >60%) | < 1000 | CC(C)(C)c1ccc2c(n1)N1C[C@@H](CCC(c3ccc(C4CNC4)cn3)Nc3cccc(n3)S(=O)(=O)NC2=O)CC1(C)C (stereo partly shown) [Compound 166] |
| + (+ is <30%) | > 3000 | CC(C)(C)c1ccc2c(n1)N1C[C@@H](CC[C@@H](c3cccc(C4CCNCC4)n3)Nc3cccc(n3)S(=O)(=O)NC2=O)CC1(C)C [Compound 131] |
| +++ (+++ is >60%) | < 1000 | CC(C)(C)c1ccc2c(n1)N1C[C@@H](CC[C@H](c3cccc(C4CNC4)n3)Nc3cccc(n3)S(=O)(=O)NC2=O)CC1(C)C [Compound 152] |
| +++ (+++ is >60%) | < 1000 | CC(C)(C)c1ccc2c(n1)N1C[C@@H](CCC(c3cccnc3)Nc3cccc(n3)S(=O)(=O)NC2=O)CC1(C)C (single isomer, unassigned) [Compound 282] |
| +++ (+++ is >60%) | < 1000 | CC(C)(C)c1ccc2c(n1)N1C[C@@H](CCC(c3ccc(C#N)cn3)Nc3cccc(n3)S(=O)(=O)NC2=O)CC1(C)C (single isomer, unassigned) [Compound 205] |
| +++ (+++ is >60%) | < 1000 | CC(C)(C)c1ccc2c(n1)N1C[C@@H](CC[C@H](c3cccc(C4=CCOCC4)n3)Nc3cccc(n3)S(=O)(=O)NC2=O)CC1(C)C [Compound 150] |
| ++ (++ is 30-60%) | < 1000 | Cn1nccc1-c1ccc(C2CC[C@@H]3CN(c4nc(C(C)(C)C)ccc4C(=O)NS(=O)(=O)c4cccc(n4)N2)C(C)(C)C3)nc1 (stereo partly shown) [Compound 57] |
| +++ (+++ is >60%) | < 1000 | CC(C)(C)c1ccc2c(n1)N1C[C@@H](CCC(c3ccc(Br)cn3)Nc3cccc(n3)S(=O)(=O)NC2=O)CC1(C)C (single isomer, unassigned) [Compound 172] |
| ++ (++ is 30-60%) | < 1000 | CC(C)(C)c1ccc2c(n1)N1C[C@@H](CCC(c3ccc(C4CC4)cn3)Nc3cccc(n3)S(=O)(=O)NC2=O)CC1(C)C (stereo partly shown) [Compound 169] |
| +++ (+++ is >60%) | < 1000 | CC(C)(C)c1ccc2c(n1)N1C[C@@H](CCC(c3ccc(N4CCC4)cn3)Nc3cccc(n3)S(=O)(=O)NC2=O)CC1(C)C (stereo partly shown) [Compound 175] |
